Consider six molecules from patent US11422106B2, “Using 4-acetoxyphenol as a substrate for modular hydrolase biosensors” (United States Government, as represented by the …, priority 2019, dated 2022).

Values joined by “and” are separate entries in the source; they are usually repeats but may differ in a detail not shown here. Equal values may be shown once.

Experiment [1] concerns the target T1, Acetylcholinesterase (AchE) (Electrophorus electricus, UniProt O42275).
T1 construct: purchased Sigma-Aldrich Type VI-S (catalogue number not given)
The experiment is classed as biochemical, Electrophorus electricus (electric eel).

Experiment [2] deals with T1, Acetylcholinesterase (AchE). The experiment can be described thus: Amperometric activity assay of immobilized AchE electrode with 4-acetoxyphenol (steady state current at 0.35 V). To be noted: substrate 4-acetoxyphenol. It counts as biochemical, Electrophorus electricus (electric eel). As to the method: Acetylcholinesterase (E.C. 3.1.1.7) Type VI-S from Electrophorus electricus (electric eel) with activity of 217 U mg^−1 protein, was purchased from Sigma-Aldrich. 4-Acetoxyphenol was purchased from Combi-Blocks (San Diego, Calif., USA). All other chemicals were purchased from Sigma-Aldrich (reagent grade) and used as received.
A mixture of BSA and AchE (containing 0.50 μg, or 0.11 U of the AchE, 8 μg of BSA in 10 μl of 0.06 M phosphate, pH 7.0) was spread on the working electrode of carbon SPE (RRPE1002C). The proteins were deposited on the electrode surface by air drying, and then crosslinked by adding 10 μl of 0.0021% of glutaraldehyde solution in water. The electrode was air dried at room temperature for 16 h to complete the crosslinking. To hydrate the sensor, it was stored in 0.1 M Tris-HCl, pH 7.0 for >24 h at room temperature before use.
Electrochemical evaluations were carried out in the low volume SPE cell (Pine Research Instrumentation, Durham, N.C., USA), and the conditions controlled by a DY2013 Potentiostat with DY2000 software (Digi-Ivy, Inc. Austin, Tex., USA). The working potential was set with the Ag/AgCl electrode on the SPE as the reference. […]
All evaluations were carried out at 22±2° C. The current in amperometric determination was recorded for 150 s. […] The average of the readings between 120 s and 150 s was used as the steady-state current. […]

Experiment [3] has the same target. The experiment can be described thus: Speciation of As(III)/As(V) mixtures with the AchE sensor versus ICP-AES. It counts as biochemical, Electrophorus electricus (electric eel). To be noted: 5 μM As(V) mixed with 0-20 μM As(III), 0.1 M Tris-HCl pH 8.0.
Experiment [4] can be described thus: Hydrolase activity of commercial enzymes with 4-acetoxyphenol as substrate. It counts as biochemical. From the text:
Instead of, or in addition to, AchE, the preferred biosensors of the present subject matter can utilize a wide range of enzyme(s). Table 1 set forth below lists a representative list of enzymes suitable for use in the biosensors of the present subject matter. The preferred biosensors can utilize one or more of these enzyme(s) instead of, or in addition to, AchE. It is also contemplated that other enzyme(s) could potentially be used in the biosensors of the present subject matter.

T1 sequence (O42275 24-633): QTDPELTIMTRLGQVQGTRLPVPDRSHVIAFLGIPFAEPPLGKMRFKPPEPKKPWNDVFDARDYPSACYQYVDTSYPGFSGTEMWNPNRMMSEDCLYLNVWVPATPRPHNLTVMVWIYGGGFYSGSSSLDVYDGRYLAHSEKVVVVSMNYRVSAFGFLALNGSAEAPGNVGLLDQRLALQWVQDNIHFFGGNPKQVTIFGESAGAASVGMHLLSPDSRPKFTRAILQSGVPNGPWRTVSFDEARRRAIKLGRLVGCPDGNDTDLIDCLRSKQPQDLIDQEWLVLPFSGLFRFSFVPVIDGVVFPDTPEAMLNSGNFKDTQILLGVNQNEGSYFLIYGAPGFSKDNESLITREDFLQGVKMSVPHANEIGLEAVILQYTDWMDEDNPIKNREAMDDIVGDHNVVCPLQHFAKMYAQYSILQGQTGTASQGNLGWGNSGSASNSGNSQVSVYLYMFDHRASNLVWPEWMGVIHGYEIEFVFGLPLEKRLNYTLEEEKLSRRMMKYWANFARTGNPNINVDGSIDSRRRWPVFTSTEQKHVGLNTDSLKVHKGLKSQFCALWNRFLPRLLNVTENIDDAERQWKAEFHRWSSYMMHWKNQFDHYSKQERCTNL

What is called Ki is a measure of affinity in units of concentration, obtained from inhibition or displacement. For sodium arsenite [As(III)], in experiment [1], the “estimated inhibition (from linear regression)” value was 50.7±5.7%; the inhibition result is “about 55%”; the maximum inhibition was 69.3% and 65.7%. In experiment [1] (pH 8), the IMax is listed as 70-75%; the affinity corresponds to a Ki of 61.6 µM; the “k1 (reversible pseudo-first order model)” value was 47.3 M⁻¹ s⁻¹; the “second (dissociation) rate constant of the reversible pseudo-first order model, symbol not given” value amounted to 0.175 M⁻¹.
Turning to `CC(=O)Oc1ccc(O)cc1` [4-acetoxyphenol], in experiment [2], the “Vmax (Michaelis-Menten fit of steady state current)” value was determined as 24.2±1.1 μA and the “current density corresponding to Vmax” value is on record as 121+5.25 μA cm^−2.
For the molecule `O.O.O.O.O.O.O.O=[As]([O-])([O-])O.[Na+].[Na+]` [As(V), Na2HAsO4.7H2O], the “sensitivity of the AchE sensor to the species” value in experiment [3] was “not sensitive”.

B1: Palatase 20000 L: Lipase, Novozyme, Rhizomucor miehei (protein, UniProt P19515 95-363, looked up)
Lipase: SIDGGIRAATSQEINELTYYTTLSANSYCRTVIPGATWDCIHCDATEDLKIIKTWSTLIYDTNAMVARGDSEKTIYIVFRGSSSIRNWIADLTFVPVSYPPVSGTKVHKGFLDSYGEVQNELVATVLDQFKQYPSYKVAVTGHSLGGATALLCALDLYQREEGLSSSNLFLYTQGQPRVGDPAFANYVVSTGIPYRRTVNERDIVPHLPPAAFGFLHAGEEYWITDNSPETVQVCTSDLETSDCSNSIVPFTSVLDHLSYFGINTGLCT
As for B1, in experiment [4], the “Activity with 4-Acetoxyphenol” value worked out at 3.43 µmol/mg/min.

B2: Alcalase 2.5 Type DX: Subtilisin, Novozyme, Bacillus licheniformis (protein, UniProt P00780 106-379, looked up)
Subtilisin Carlsberg: AQTVPYGIPLIKADKVQAQGFKGANVKVAVLDTGIQASHPDLNVVGGASFVAGEAYNTDGNGHGTHVAGTVAALDNTTGVLGVAPSVSLYAVKVLNSSGSGSYSGIVSGIEWATTNGMDVINMSLGGASGSTAMKQAVDNAYAKGVVVVAAAGNSGSSGNTNTIGYPAKYDSVIAVGAVDSNSNRASFSSVGAELEVMAPGAGVYSTYPTNTYATLNGTSMASPHVAGAAALILSKHPNLSASQVRNRLSSTATYLGSSFYYGKGLINVEAAAQ
modifications: commercial Novozymes enzyme preparation
notes: Subtilisin, Novozyme, Bacillus licheniformis
With B2, the “Activity with 4-Acetoxyphenol” value in experiment [4] was 1.93 µmol/mg/min.

B3: Lipolase 100 L: Lipase, Novozyme, Thermomyces lanuginosus (protein, UniProt O59952 23-291, looked up)
Lipase: EVSQDLFNQFNLFAQYSAAAYCGKNNDAPAGTNITCTGNACPEVEKADATFLYSFEDSGVGDVTGFLALDNTNKLIVLSFRGSRSIENWIGNLNFDLKEINDICSGCRGHDGFTSSWRSVADTLRQKVEDAVREHPDYRVVFTGHSLGGALATVAGADLRGNGYDIDVFSYGAPRVGNRAFAEFLTVQTGGTLYRITHTNDIVPRLPPREFGYSHSSPEYWIKSGTLVPVTRNDIVKIEGIDATGGNNQPNIPDIPAHLWYFGLIGTCL
modifications: commercial Novozymes enzyme preparation
notes: Lipase, Novozyme, Thermomyces lanuginosus
B3: the “Activity with 4-Acetoxyphenol” value in experiment [4] amounted to 1.59 µmol/mg/min.
